{"source": "the supplement of paper PMC8183993", "conditions_in_all_cases": "24 h", "key": {"U2OS [1]": {"tested_on": "U2OS", "assay": "nuclei count in OPP assay relative to DMSO (% of DMSO); higher = more viable cells", "method": "(§1)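 Validation screen in U2OS cells: hits tested at 1, 3 and 10 uM for 24 h in duplicate plates. Translation was read by OPP incorporation (1 h pulse) and HPG incorporation (30 min in methionine-free medium), quantified by high-throughput microscopy alongside nuclei counts. All values are normalised to DMSO (= 100).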"}, "U2OS [2]": {"tested_on": "U2OS", "assay": "mean OPP incorporation (global translation) relative to DMSO (% of DMSO); higher = more protein synthesis", "method": "as §1"}, "U2OS [3]": {"tested_on": "U2OS", "assay": "mean HPG incorporation (global translation) relative to DMSO (% of DMSO); higher = more protein synthesis", "method": "as §1"}, "U2OS [4]": {"tested_on": "U2OS", "assay": "nuclei count in HPG assay relative to DMSO (% of DMSO); higher = more viable cells", "method": "as §1"}}, "note": "Where a name gives a salt, the structure may show the parent alone."}
{"smiles": "CNC(=O)c1cccc(-c2ccc3c(N4CCOC[C@@H]4C)nc(N4CCOC[C@@H]4C)nc3n2)c1", "note": "[AZD2014]", "values": [{"measurement": "nuclei count in OPP assay", "setting": "U2OS [1]; 1 µM", "value": 85.4}, {"measurement": "nuclei count in OPP assay", "setting": "U2OS [1]; 3 µM", "value": 79.4}, {"measurement": "nuclei count in OPP assay", "setting": "U2OS [1]; 10 µM", "value": 72.2}, {"measurement": "mean OPP incorporation", "setting": "U2OS [2]; 1 µM", "value": 57.6}, {"measurement": "mean OPP incorporation", "setting": "U2OS [2]; 3 µM", "value": 36.3}, {"measurement": "mean OPP incorporation", "setting": "U2OS [2]; 10 µM", "value": 35.6}, {"measurement": "mean HPG incorporation", "setting": "U2OS [3]; 1 µM", "value": 44.3}, {"measurement": "mean HPG incorporation", "setting": "U2OS [3]; 3 µM", "value": 36.7}, {"measurement": "mean HPG incorporation", "setting": "U2OS [3]; 10 µM", "value": 34.8}, {"measurement": "nuclei count in HPG assay", "setting": "U2OS [4]; 1 µM", "value": 84.1}, {"measurement": "nuclei count in HPG assay", "setting": "U2OS [4]; 3 µM", "value": 78}, {"measurement": "nuclei count in HPG assay", "setting": "U2OS [4]; 10 µM", "value": 75}]}
{"smiles": "COc1cc(C)c(/C=C/C(C)=C/C=C/C(C)=C/C(=O)O)c(C)c1C", "note": "[Acitretin]", "values": [{"measurement": "nuclei count in OPP assay", "setting": "U2OS [1]; 1 µM", "value": 91.4}, {"measurement": "nuclei count in OPP assay", "setting": "U2OS [1]; 3 µM", "value": 89.8}, {"measurement": "nuclei count in OPP assay", "setting": "U2OS [1]; 10 µM", "value": 94.2}, {"measurement": "mean OPP incorporation", "setting": "U2OS [2]; 1 µM", "value": 107}, {"measurement": "mean OPP incorporation", "setting": "U2OS [2]; 3 µM", "value": 109}, {"measurement": "mean OPP incorporation", "setting": "U2OS [2]; 10 µM", "value": 109}, {"measurement": "mean HPG incorporation", "setting": "U2OS [3]; 1 µM", "value": 99.8}, {"measurement": "mean HPG incorporation", "setting": "U2OS [3]; 3 µM", "value": 108}, {"measurement": "mean HPG incorporation", "setting": "U2OS [3]; 10 µM", "value": 87}, {"measurement": "nuclei count in HPG assay", "setting": "U2OS [4]; 1 µM", "value": 91.8}, {"measurement": "nuclei count in HPG assay", "setting": "U2OS [4]; 3 µM", "value": 95.3}, {"measurement": "nuclei count in HPG assay", "setting": "U2OS [4]; 10 µM", "value": 95.7}]}
{"smiles": "CCC(=O)CCCCC[C@@H]1NC(=O)[C@H]2CCCCN2C(=O)[C@H]([C@@H](C)CC)NC(=O)[C@H](Cc2cn(OC)c3ccccc23)NC1=O", "note": "[Apicidin]", "values": [{"measurement": "nuclei count in OPP assay", "setting": "U2OS [1]; 1 µM", "value": 106}, {"measurement": "nuclei count in OPP assay", "setting": "U2OS [1]; 3 µM", "value": 95.4}, {"measurement": "nuclei count in OPP assay", "setting": "U2OS [1]; 10 µM", "value": 91.7}, {"measurement": "mean OPP incorporation", "setting": "U2OS [2]; 1 µM", "value": 92.2}, {"measurement": "mean OPP incorporation", "setting": "U2OS [2]; 3 µM", "value": 83.9}, {"measurement": "mean OPP incorporation", "setting": "U2OS [2]; 10 µM", "value": 55.8}, {"measurement": "mean HPG incorporation", "setting": "U2OS [3]; 1 µM", "value": 132}, {"measurement": "mean HPG incorporation", "setting": "U2OS [3]; 3 µM", "value": 135}, {"measurement": "mean HPG incorporation", "setting": "U2OS [3]; 10 µM", "value": 85}, {"measurement": "nuclei count in HPG assay", "setting": "U2OS [4]; 1 µM", "value": 108}, {"measurement": "nuclei count in HPG assay", "setting": "U2OS [4]; 3 µM", "value": 96.3}, {"measurement": "nuclei count in HPG assay", "setting": "U2OS [4]; 10 µM", "value": 88}]}
{"smiles": "Cc1c(CN2CCN(C(=O)[C@H](C)O)CC2)sc2c(N3CCOCC3)nc(-c3cnc(N)nc3)nc12", "note": "[Apitolisib (GDC-0980, RG7422)]", "values": [{"measurement": "nuclei count in OPP assay", "setting": "U2OS [1]; 1 µM", "value": 72.8}, {"measurement": "nuclei count in OPP assay", "setting": "U2OS [1]; 3 µM", "value": 76.9}, {"measurement": "nuclei count in OPP assay", "setting": "U2OS [1]; 10 µM", "value": 73.3}, {"measurement": "mean OPP incorporation", "setting": "U2OS [2]; 1 µM", "value": 60.3}, {"measurement": "mean OPP incorporation", "setting": "U2OS [2]; 3 µM", "value": 35.8}, {"measurement": "mean OPP incorporation", "setting": "U2OS [2]; 10 µM", "value": 35.4}, {"measurement": "mean HPG incorporation", "setting": "U2OS [3]; 1 µM", "value": 44.1}, {"measurement": "mean HPG incorporation", "setting": "U2OS [3]; 3 µM", "value": 40.7}, {"measurement": "mean HPG incorporation", "setting": "U2OS [3]; 10 µM", "value": 41.4}, {"measurement": "nuclei count in HPG assay", "setting": "U2OS [4]; 1 µM", "value": 80.7}, {"measurement": "nuclei count in HPG assay", "setting": "U2OS [4]; 3 µM", "value": 76.3}, {"measurement": "nuclei count in HPG assay", "setting": "U2OS [4]; 10 µM", "value": 75}]}
{"smiles": "Cc1c(-c2ccc(O)cc2)n(Cc2ccc(OCCN3CCCCCC3)cc2)c2ccc(O)cc12", "note": "[Bazedoxifene HCl]", "values": [{"measurement": "nuclei count in OPP assay", "setting": "U2OS [1]; 1 µM", "value": 96.8}, {"measurement": "nuclei count in OPP assay", "setting": "U2OS [1]; 3 µM", "value": 86.5}, {"measurement": "nuclei count in OPP assay", "setting": "U2OS [1]; 10 µM", "value": 77.9}, {"measurement": "mean OPP incorporation", "setting": "U2OS [2]; 1 µM", "value": 109}, {"measurement": "mean OPP incorporation", "setting": "U2OS [2]; 3 µM", "value": 121}, {"measurement": "mean OPP incorporation", "setting": "U2OS [2]; 10 µM", "value": 133}, {"measurement": "mean HPG incorporation", "setting": "U2OS [3]; 1 µM", "value": 84.1}, {"measurement": "mean HPG incorporation", "setting": "U2OS [3]; 3 µM", "value": 84.9}, {"measurement": "mean HPG incorporation", "setting": "U2OS [3]; 10 µM", "value": 85.2}, {"measurement": "nuclei count in HPG assay", "setting": "U2OS [4]; 1 µM", "value": 103}, {"measurement": "nuclei count in HPG assay", "setting": "U2OS [4]; 3 µM", "value": 98.5}, {"measurement": "nuclei count in HPG assay", "setting": "U2OS [4]; 10 µM", "value": 80.3}]}
